Source: US9403830B2, “Inhibitors of leukotriene production” (Boehringer Ingelheim International GmbH, priority 2012, dated 2016)
pIC50: −log10 of the molar value.

Assays:
human LTA4 hydrolase = target: T1, human LTA4 hydrolase (Homo sapiens, UniProt P09960); experiment: LTA4H Enzyme assay (peptidase, Arg-AMC cleavage); format: biochemical; conditions: LTA4H enzyme 1 nM, Arg-AMC substrate 50 μM, room temperature 1 h, fluorescence 380/460 nm
T1 sequence (P09960 1-611): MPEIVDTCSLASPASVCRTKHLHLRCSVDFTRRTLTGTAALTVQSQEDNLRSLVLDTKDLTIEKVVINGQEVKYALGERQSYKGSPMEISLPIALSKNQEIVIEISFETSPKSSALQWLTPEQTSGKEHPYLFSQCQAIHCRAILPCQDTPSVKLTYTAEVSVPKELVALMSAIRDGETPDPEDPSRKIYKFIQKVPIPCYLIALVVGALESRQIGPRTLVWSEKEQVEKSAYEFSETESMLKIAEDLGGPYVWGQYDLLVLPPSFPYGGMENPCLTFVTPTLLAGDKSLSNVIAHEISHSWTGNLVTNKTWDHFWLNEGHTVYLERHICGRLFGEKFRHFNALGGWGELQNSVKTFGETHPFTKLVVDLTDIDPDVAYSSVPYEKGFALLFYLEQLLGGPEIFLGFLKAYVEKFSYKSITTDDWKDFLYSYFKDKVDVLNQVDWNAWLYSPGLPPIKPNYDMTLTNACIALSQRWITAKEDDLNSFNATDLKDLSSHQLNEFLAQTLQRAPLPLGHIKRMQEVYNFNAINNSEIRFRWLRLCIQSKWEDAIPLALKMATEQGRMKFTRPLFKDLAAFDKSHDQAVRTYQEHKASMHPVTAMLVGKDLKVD
Summary of the method: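 Human LTA4H (1 nM final) incubated with compound and Arg-AMC (50 μM final) in 50 mM Tris-HCl pH 7.5, 100 mM KCl, 0.5% BSA, 1 h at room temperature. Product read as AMC fluorescence (ex 380/em 460 nm); IC50 reported.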

[1] = test system: LTB4 synthesis in human whole blood; experiment: human whole blood (HWB) assay, inhibition of LTB4 production; format: cell-based; conditions: heparinized human whole blood, calcimycin 20 μM stimulation, plasma LTB4
Summary of the method: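 Heparinized human whole blood preincubated with compound 15 min at 37 °C, then stimulated with 20 μM (final) calcimycin for 30 min at 37 °C. Plasma LTB4 measured by antibody-based HTRF; IC50 reported.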

CC(=O)N1CC2CCC1CN2Cc1ccc2cc(Oc3ccc(-c4ccn[nH]4)cn3)ccc2n1 (stereo not drawn) [Example 148, 1-(5-{6-[5-(2H-Pyrazol-3-yl)-pyridin-2-yloxy]-quinolin-2-ylmethyl}-2,5-diaza-bicyclo[2.2.2]oct-2-yl)-ethanone]
pIC50 (human LTA4 hydrolase): 9.34 | pIC50 [1]: 6.82

CC(=O)N1CCN(Cc2coc3cc(Oc4ccc(-c5ccn[nH]5)cn4)ccc23)CC1 [Example 149, 1-(4-{6-[5-(2H-Pyrazol-3-yl)-pyridin-2-yloxy]-benzofuran-3-ylmethyl}-piperazin-1-yl)-ethanone]
pIC50 (human LTA4 hydrolase): 8.92 | pIC50 [1]: 6.60

COC(=O)c1ccc(CN2C[C@@H]3C[C@H]2CN3Cc2nc3cc(Oc4ccc(-c5ccn[nH]5)cc4)ccc3[nH]2)cc1 [Example 150, 4-((1S,4S)-5-{5-[4-(2H-Pyrazol-3-yl)-phenoxy]-1H-benzoimidazol-2-ylmethyl}-2,5-diaza-bicyclo[2.2.1]hept-2-ylmethyl)-benzoic acid methyl ester]
pIC50 (human LTA4 hydrolase): 9.49 | pIC50 [1]: 6.52

COC(=O)c1ccc(C2CCN(Cc3nc4cc(Oc5ccc(-c6ccn[nH]6)cc5)ccc4[nH]3)CC2)cc1 [Example 151, 4-(1-{5-[4-(2H-Pyrazol-3-yl)-phenoxy]-1H-benzoimidazol-2-ylmethyl}-piperidin-4-yl)-benzoic acid methyl ester]
pIC50 (human LTA4 hydrolase): 9.40 | pIC50 [1]: 6.51

CCN(CC)Cc1nc2cc(Oc3ccc(-c4ccn[nH]4)cc3)ccc2[nH]1 [Example 152, Diethyl-{5-[4-(2H-pyrazol-3-yl)-phenoxy]-1H-benzoimidazol-2-ylmethyl}-amine]
pIC50 (human LTA4 hydrolase): 10.00 | pIC50 [1]: 7.15

CC1CCN(Cc2nc3cc(Oc4ccc(-c5ccn[nH]5)cc4)ccc3[nH]2)CC1 [Example 153, 2-(4-Methyl-piperidin-1-ylmethyl)-5-[4-(2H-pyrazol-3-yl)-phenoxy]-1H-benzoimidazole]
pIC50 (human LTA4 hydrolase): 9.77 | pIC50 [1]: 7.05

CCN(C)CCn1cc2cc(Oc3ccc(-c4ccn[nH]4)cc3)ccc2n1 [Example 154, Ethyl-methyl-(2-{5-[4-(2H-pyrazol-3-yl)-phenoxy]-indazol-2-yl}-ethyl)-amine]
pIC50 (human LTA4 hydrolase): 9.72 | pIC50 [1]: 7.02

CCN(CCOC)Cc1nc2cc(Oc3ccc(-c4ccn[nH]4)cc3)ccc2[nH]1 [Example 155, Ethyl-(2-methoxy-ethyl)-{5-[4-(2H-pyrazol-3-yl)-phenoxy]-1H-benzoimidazol-2-ylmethyl}-amine]
pIC50 (human LTA4 hydrolase): 9.74 | pIC50 [1]: 7.02

COCC1CCCN(Cc2nc3cc(Oc4ccc(-c5ccn[nH]5)cc4)ccc3[nH]2)C1 (stereo not drawn) [Example 156, 2-(3-Methoxymethyl-piperidin-1-ylmethyl)-5-[4-(2H-pyrazol-3-yl)-phenoxy]-1H-benzoimidazole]
pIC50 (human LTA4 hydrolase): 9.66 | pIC50 [1]: 7.02

COC1CCN(Cc2nc3cc(Oc4ccc(-c5ccn[nH]5)cc4)ccc3[nH]2)C1 (stereo not drawn) [Example 157, 2-(3-Methoxy-pyrrolidin-1-ylmethyl)-5-[4-(2H-pyrazol-3-yl)-phenoxy]-1H-benzoimidazole]
pIC50 (human LTA4 hydrolase): 9.96 | pIC50 [1]: 7.01

CN(C)CCn1cc2cc(Oc3ccc(-c4ccn[nH]4)cc3)ccc2n1 [Example 158, Dimethyl-(2-{5-[4-(2H-pyrazol-3-yl)-phenoxy]-indazol-2-yl}-ethyl)-amine]
pIC50 (human LTA4 hydrolase): 9.55 | pIC50 [1]: 6.96

CN(Cc1nc2cc(Oc3ccc(-c4ccn[nH]4)cc3)ccc2[nH]1)CC1CCOCC1 [Example 159, Methyl-{5-[4-(2H-pyrazol-3-yl)-phenoxy]-1H-benzoimidazol-2-ylmethyl}-(tetrahydro-pyran-4-ylmethyl)-amine]
pIC50 (human LTA4 hydrolase): 9.72 | pIC50 [1]: 6.96

CC[C@H](C)NCc1nc2cc(Oc3ccc(-c4ccn[nH]4)cc3)ccc2[nH]1 [Example 161, ((S)-sec-Butyl)-{5-[4-(2H-pyrazol-3-yl)-phenoxy]-1H-benzoimidazol-2-ylmethyl}-amine]
pIC50 (human LTA4 hydrolase): 9.85 | pIC50 [1]: 6.92

CN(C)CCn1ncc2cc(Oc3ccc(-c4ccn[nH]4)cc3)ccc21 [Example 162, Dimethyl-(2-{5-[4-(2H-pyrazol-3-yl)-phenoxy]-indazol-1-yl}-ethyl)-amine]
pIC50 (human LTA4 hydrolase): 9.21 | pIC50 [1]: 6.92

c1cc(-c2ccc(Oc3ccc4[nH]c(CN5CCCCCC5)nc4c3)cc2)[nH]n1 [Example 163, 2-Azepan-1-ylmethyl-5-[4-(2H-pyrazol-3-yl)-phenoxy]-1H-benzoimidazole]
pIC50 (human LTA4 hydrolase): 10.19 | pIC50 [1]: 6.92

CN(Cc1nc2cc(Oc3ccc(-c4ccn[nH]4)cc3)ccc2[nH]1)C1CCCC1 [Example 164, Cyclopentyl-methyl-{5-[4-(2H-pyrazol-3-yl)-phenoxy]-1H-benzoimidazol-2-ylmethyl}-amine]
pIC50 (human LTA4 hydrolase): 9.85 | pIC50 [1]: 6.92

C[C@@H]1CCCCN1Cc1nc2cc(Oc3ccc(-c4ccn[nH]4)cc3)ccc2[nH]1 [Example 165, 2-((R)-2-Methyl-piperidin-1-ylmethyl)-5-[4-(2H-pyrazol-3-yl)-phenoxy]-1H-benzoimidazole]
pIC50 (human LTA4 hydrolase): 10.12 | pIC50 [1]: 6.92

COCC1CCN(Cc2nc3cc(Oc4ccc(-c5ccn[nH]5)cc4)ccc3[nH]2)C1 (stereo not drawn) [Example 166, 2-(3-Methoxymethyl-pyrrolidin-1-ylmethyl)-5-[4-(2H-pyrazol-3-yl)-phenoxy]-1H-benzoimidazole]
pIC50 (human LTA4 hydrolase): 9.68 | pIC50 [1]: 6.92

COC[C@H]1CCCN1Cc1nc2cc(Oc3ccc(-c4ccn[nH]4)cc3)ccc2[nH]1 [Example 167, 2-((R)-2-Methoxymethyl-pyrrolidin-1-ylmethyl)-5-[4-(2H-pyrazol-3-yl)-phenoxy]-1H-benzoimidazole]
pIC50 (human LTA4 hydrolase): 9.85 | pIC50 [1]: 6.92

COCC1CCCCN1Cc1nc2cc(Oc3ccc(-c4ccn[nH]4)cc3)ccc2[nH]1 (stereo not drawn) [Example 168, 2-(2-Methoxymethyl-piperidin-1-ylmethyl)-5-[4-(2H-pyrazol-3-yl)-phenoxy]-1H-benzoimidazole]
pIC50 (human LTA4 hydrolase): 9.89 | pIC50 [1]: 6.92

CN(C)C(=O)CC1CCN(CC2Cc3ccc(Oc4ccc(-c5ccn[nH]5)cc4)cc3O2)CC1 (stereo not drawn) [Example 169, N,N-Dimethyl-2-(1-{6-[4-(2H-pyrazol-3-yl)-phenoxy]-2,3-dihydro-benzofuran-2-ylmethyl}-piperidin-4-yl)-acetamide]
pIC50 (human LTA4 hydrolase): 9.60 | pIC50 [1]: 6.92

COCC(=O)NC1CCN(CC2Cc3ccc(Oc4ccc(-c5ccn[nH]5)cc4)cc3O2)CC1 (stereo not drawn) [Example 170, 2-Methoxy-N-(1-{6-[4-(2H-pyrazol-3-yl)-phenoxy]-2,3-dihydro-benzofuran-2-ylmethyl}-piperidin-4-yl)-acetamide]
pIC50 (human LTA4 hydrolase): 9.46 | pIC50 [1]: 6.92

C[C@H]1CCCCN1Cc1nc2cc(Oc3ccc(-c4ccn[nH]4)cc3)ccc2[nH]1 [Example 171, 2-((S)-2-Methyl-piperidin-1-ylmethyl)-5-[4-(2H-pyrazol-3-yl)-phenoxy]-1H-benzoimidazole]
pIC50 (human LTA4 hydrolase): 9.96 | pIC50 [1]: 6.89

COC1CCCN(Cc2nc3cc(Oc4ccc(-c5ccn[nH]5)cc4)ccc3[nH]2)C1 (stereo not drawn) [Example 172, 2-(3-Methoxy-piperidin-1-ylmethyl)-5-[4-(2H-pyrazol-3-yl)-phenoxy]-1H-benzoimidazole]
pIC50 (human LTA4 hydrolase): 10.15 | pIC50 [1]: 6.89

COC[C@@H]1CCCN1Cc1nc2cc(Oc3ccc(-c4ccn[nH]4)cc3)ccc2[nH]1 [Example 173, 2-((S)-2-Methoxymethyl-pyrrolidin-1-ylmethyl)-5-[4-(2H-pyrazol-3-yl)-phenoxy]-1H-benzoimidazole]
pIC50 (human LTA4 hydrolase): 9.80 | pIC50 [1]: 6.89

CC1(O)CN(Cc2ccc3cc(Oc4ccc(-c5ccn[nH]5)cn4)ccc3n2)C1 [Example 174, 3-Methyl-1-{6-[5-(2H-pyrazol-3-yl)-pyridin-2-yloxy]-quinolin-2-ylmethyl}-azetidin-3-ol]
pIC50 (human LTA4 hydrolase): 9.19 | pIC50 [1]: 6.85

c1cc(-c2ccc(Oc3ccc4[nH]c(CN5CCCOCC5)nc4c3)cc2)[nH]n1 [Example 175, 2-[1,4]Oxazepan-4-ylmethyl-5-[4-(2H-pyrazol-3-yl)-phenoxy]-1H-benzoimidazole]
pIC50 (human LTA4 hydrolase): 9.77 | pIC50 [1]: 6.85

O=S1(=O)CCN(CCn2cc3cc(Oc4ccc(-c5ccn[nH]5)cc4)ccc3n2)CC1 [Example 176, 2-[2-(1,1-Dioxo-1-λ-6-thiomorpholin-4-yl)-ethyl]-5-[4-(2H-pyrazol-3-yl)-phenoxy]-2H-indazole]
pIC50 (human LTA4 hydrolase): 9.49 | pIC50 [1]: 6.85

c1cc(-c2ccc(Oc3ccc4nc(CN5C[C@@H]6C[C@H]5CO6)ccc4c3)nc2)[nH]n1 [Example 178, 2-[(1S,4S)-1-(2-Oxa-5-aza-bicyclo[2.2.1]hept-5-yl)methyl]-6-[5-(2H-pyrazol-3-yl)-pyridin-2-yloxy]-quinoline]
pIC50 (human LTA4 hydrolase): 9.13 | pIC50 [1]: 6.82

CN(Cc1nc2cc(Oc3ccc(-c4ccn[nH]4)cc3)ccc2[nH]1)C1CC1 [Example 179, Cyclopropyl-methyl-{5-[4-(2H-pyrazol-3-yl)-phenoxy]-1H-benzoimidazol-2-ylmethyl}-amine]
pIC50 (human LTA4 hydrolase): 9.70 | pIC50 [1]: 6.82
